{"source": "paper PMC7275090", "about": "“Mode of action of teixobactins in cellular membranes” (Nature Communications, 2020)", "origin": "cited, not measured here", "tested_on": "bacteria", "details": "cited from earlier work"}
{"substance": "Teixobactin", "values": [{"measurement": "antibacterial activity", "result": "excellent activity"}]}
